In ChEMBL document CHEMBL1136668, “Structure-activity relationships of some opiate glycosides” (Bioorg Med Chem Lett, 2003):

What was measured:
[1] = tested on: Mus musculus; assay: Area under the antinociceptive effect time curve was determined after administration of 8 mg/kg in mice; type: functional
[2] = target: T1, Mu-type opioid receptor (Rattus norvegicus, UniProt P33535); assay: mu-2 receptor binding affinity in rat brain by 3H [d-Ala2, (N-Me)Phe4, Gly5-ol] enkephalin displacement.; type: tissue-based
T1 sequence (P33535 whole entry): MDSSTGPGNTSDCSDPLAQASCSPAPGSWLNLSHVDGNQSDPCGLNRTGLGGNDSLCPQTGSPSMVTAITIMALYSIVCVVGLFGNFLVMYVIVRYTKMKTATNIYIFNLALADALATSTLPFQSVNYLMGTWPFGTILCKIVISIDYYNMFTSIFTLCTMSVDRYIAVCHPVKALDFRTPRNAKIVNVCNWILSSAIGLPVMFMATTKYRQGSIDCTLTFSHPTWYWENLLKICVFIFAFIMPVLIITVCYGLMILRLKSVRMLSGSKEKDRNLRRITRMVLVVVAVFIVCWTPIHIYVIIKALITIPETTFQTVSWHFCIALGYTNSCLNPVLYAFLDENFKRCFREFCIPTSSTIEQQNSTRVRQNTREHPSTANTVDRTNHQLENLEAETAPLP

[3] = tested on: Mus musculus; assay: Area under the antinociceptive effect time curve after 4 mg/kg administration in mice.; type: functional
[4] = tested on: Mus musculus; assay: Area under the antinociceptive effect time curve after 2 mg/kg administration in mice.; type: functional
[5] = target: T1, Mu-type opioid receptor; assay: mu-1 receptor binding affinity in rat brain by 3H [d-Ala2, d-Leu5] enkephalin displacement.; type: tissue-based

| Structure (SMILES) | AUEC [1] | Ki [2] | AUEC [3] | AUEC [4] | Ki [5] | Activity [1] |
| --- | --- | --- | --- | --- | --- | --- |
| CN1CCC23c4c5ccc(O)c4O[C@H]2[C@@H](OC2OC(C(=O)O)=CC(O)C2O)C=C[C@H]3[C@H]1C5 (some centres undefined) | 701 A% min-1 | 48 nM | 759 A% min-1 | 651 %·min | 1.4 nM | – |
| CC1OC(O[C@H]2C=C[C@H]3[C@H]4Cc5ccc(O)c6c5C3(CCN4C)[C@H]2O6)C(O)C(O)C1O (some centres undefined) | – | 6.2 nM | 250 A% min-1 | 421 %·min | 0.17 nM | – |
| CN1CC[C@]23c4c5ccc(O)c4O[C@H]2[C@@H](OC2O[C@@H](C(=O)O)CC(O)C2O)C=C[C@H]3[C@H]1C5 (some centres undefined) | – | 57 nM | 365 A% min-1 | 18 %·min | 1.9 nM | 1046 A% min-1 |
| CN1CC[C@]23c4c5ccc(O)c4O[C@H]2[C@@H](OC2OC(CO)[C@H](O)C(O)C2O)C=C[C@H]3[C@H]1C5 (some centres undefined) | – | 3.2 nM | 2283 A% min-1 | 1130 %·min | 0.28 nM | – |
| CN1CCC23c4c5ccc(O)c4O[C@H]2[C@@H](OC2OC(CO)[C@H](O)C(O)C2O)C=C[C@H]3[C@H]1C5 (some centres undefined) | 2397 A% min-1 | 4.8 nM | 686 A% min-1 | 682 %·min | 1.2 nM | – |
| CN1CC[C@]23c4c5ccc(O)c4O[C@H]2[C@@H](O[C@@H]2O[C@H](C(=O)O)C[C@H](O)[C@@H]2O)C=C[C@H]3[C@H]1C5 | 380 A% min-1 | 172 nM | 80 A% min-1 | 35 %·min | 0.6 nM | – |
| CN1CCC23c4c5ccc(O)c4O[C@H]2[C@@H](O[C@@H]2O[C@@H](CO)[C@@H](O)[C@H](O)[C@@H]2O)CC[C@H]3[C@H]1C5 | – | 2.5 nM | 2701 A% min-1 | 1490 %·min | 0.21 nM | – |
| CN1CCC23c4c5ccc(O)c4O[C@H]2[C@@H](O[C@@H]2O[C@@H](C(=O)O)[C@@H](O)[C@H](O)[C@@H]2O)CC[C@H]3[C@H]1C5 | – | 5.7 nM | 1885 A% min-1 | 1667 %·min | 0.25 nM | – |
| O=C(O)[C@@H]1O[C@@H](O[C@H]2C=C[C@H]3[C@H]4Cc5ccc(O)c6c5C3(CCN4CC3CC3)[C@H]2O6)[C@@H](O)[C@@H](O)[C@@H]1O | 266 A% min-1 | 3.5 nM | 599 A% min-1 | 126 %·min | 0.06 nM | – |
| CN1CCC23c4c5ccc(O)c4O[C@H]2[C@@H](O[C@@H]2O[C@H](C(=O)O)[C@@H](O)[C@H]2O)C=C[C@H]3[C@H]1C5 | 596 A% min-1 | 44 nM | 797 A% min-1 | -56 %·min | 1.6 nM | – |
| CN1CCC23c4c5ccc(O)c4O[C@H]2[C@@H](OC2C=CC(O)C(C(=O)O)O2)C=C[C@H]3[C@H]1C5 (some centres undefined) | – | 178 nM | 130 A% min-1 | 491 %·min | 3.2 nM | 851 A% min-1 |
| O=C(O)[C@@H]1O[C@@H](O[C@H]2CC[C@H]3[C@H]4Cc5ccc(O)c6c5[C@@]3(CCN4)[C@H]2O6)[C@@H](O)[C@@H](O)[C@@H]1O | – | – | 2461 A% min-1 | 2196 %·min | – | – |
| COc1ccc2c3c1O[C@H]1[C@@H](O[C@@H]4O[C@@H](C(=O)O)[C@@H](O)[C@H](O)[C@@H]4O)C=C[C@H]4[C@@H](C2)N(C)CC[C@@]341 | – | 5700 nM | – | – | 85 nM | – |
| O=C(O)[C@@H]1O[C@@H](O[C@H]2C=C[C@H]3[C@H]4Cc5ccc(O)c6c5[C@@]3(CCN4)[C@H]2O6)[C@@H](O)[C@@H](O)[C@@H]1O | 2487 A% min-1 | 37 nM | 1614 A% min-1 | 393 %·min | 0.98 nM | – |
| C=CCN1CC[C@]23c4c5ccc(O)c4O[C@H]2[C@@H](O[C@@H]2O[C@@H](C(=O)O)[C@@H](O)[C@H](O)[C@@H]2O)C=C[C@H]3[C@H]1C5 | 492 A% min-1 | 10 nM | 147 A% min-1 | 221 %·min | 0.2 nM | – |
| O=C(O)CN1CC[C@]23c4c5ccc(O)c4O[C@H]2[C@@H](O[C@@H]2O[C@@H](C(=O)O)[C@@H](O)[C@H](O)[C@@H]2O)C=C[C@H]3[C@H]1C5 | 322 A% min-1 | 1620 nM | 45 A% min-1 | 266 %·min | 33 nM | – |
| CN1CCC23c4c5ccc(O)c4O[C@H]2[C@@H](OC2CCCC(C(=O)O)O2)C=C[C@H]3[C@H]1C5 (some centres undefined) | 478 A% min-1 | 168 nM | 26 A% min-1 | 230 %·min | 0.51 nM | – |
| CN1CC[C@]23c4c5ccc(O)c4O[C@H]2[C@@H](O[C@@H]2O[C@H](C(=O)O)[C@@H](O)[C@H](O)[C@H]2O)C=C[C@H]3[C@H]1C5 [MORPHINE GLUCURONIDE] | – | 26 nM | 1359 A% min-1 | – | 1.5 nM | – |
| CN1CC[C@]23c4c5ccc(O)c4O[C@H]2[C@@H](O)C=C[C@H]3[C@H]1C5 [MORPHINE] | – | – | 1987 A% min-1 | – | – | – |
